The values below come from patent US9499502B2, “5-substituted iminothiazines and their mono- and dioxides as BACE inhibitors, compositions, and their use” (Merck Sharp & Dohme Corp., priority 2011, dated 2016).

Each structure is given as a SMILES string. Read-outs that look alike come from different tables or passages of the source.

Experiment [1] concerns the target soluble human BACE1 catalytic domain (Homo sapiens (Human), UniProt P56817). Put plainly: BACE1 HTRF FRET Assay. To be noted: for inhibition at 10 µM: read-out: BACE1 inhibition, % Inh. at 10 μM, at 10 μM. (In general: Time-resolved FRET reads energy transfer from a long-lived donor to a nearby acceptor.)
The target of experiment [2] is purified human autoBACE-2 (Homo sapiens (Human), UniProt Q9Y5Z0). The experiment in a line: BACE-2 Assay (BACE-HTRF assay). To be noted: for Ki: Ki calculated from IC50 using the Cheng-Prusoff equation, read-out: BACE2 Ki; for inhibition at 10 µM: read-out: inhibition of BACE2 at 10 μM. It counts as biochemical. Here is the method:
Inhibitor IC50s at purified human autoBACE-2 are determined in a time-resolved endpoint proteolysis assay that measures hydrolysis of the QSY7-[…]-Eu-amide FRET peptide substrate (BACE-HTRF assay). […] DMSO is present at 5% final concentration in the assay. Following laser excitation of sample wells at 320 nm, the fluorescence signal at 620 nm is collected for 400 ms following a 50 μs delay on a RUBYstar HTRF plate reader (BMG Labtechnologies). Raw RFU data is normalized to maximum (1.0 nM BACE/DMSO) and minimum (no enzyme/DMSO) RFU values. […] The Ki values are calculated from the IC50 using the Cheng-Prusoff equation.

Where [3] appears, read: read-out: BACE1 Ki, Ki calculated from IC50 using the Cheng-Prusoff equation.

soluble human BACE1 catalytic domain, sequence (P56817 75-416): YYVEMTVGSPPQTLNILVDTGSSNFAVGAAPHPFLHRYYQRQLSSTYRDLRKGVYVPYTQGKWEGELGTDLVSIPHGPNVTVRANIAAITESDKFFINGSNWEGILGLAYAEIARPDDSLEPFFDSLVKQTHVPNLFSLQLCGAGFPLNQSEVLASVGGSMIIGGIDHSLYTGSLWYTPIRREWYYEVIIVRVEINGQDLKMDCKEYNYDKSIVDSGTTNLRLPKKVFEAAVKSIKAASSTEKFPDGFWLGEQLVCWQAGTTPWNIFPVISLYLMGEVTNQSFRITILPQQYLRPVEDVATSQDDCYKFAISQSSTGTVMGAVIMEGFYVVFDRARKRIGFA
purified human autoBACE-2, sequence (Q9Y5Z0 63-473): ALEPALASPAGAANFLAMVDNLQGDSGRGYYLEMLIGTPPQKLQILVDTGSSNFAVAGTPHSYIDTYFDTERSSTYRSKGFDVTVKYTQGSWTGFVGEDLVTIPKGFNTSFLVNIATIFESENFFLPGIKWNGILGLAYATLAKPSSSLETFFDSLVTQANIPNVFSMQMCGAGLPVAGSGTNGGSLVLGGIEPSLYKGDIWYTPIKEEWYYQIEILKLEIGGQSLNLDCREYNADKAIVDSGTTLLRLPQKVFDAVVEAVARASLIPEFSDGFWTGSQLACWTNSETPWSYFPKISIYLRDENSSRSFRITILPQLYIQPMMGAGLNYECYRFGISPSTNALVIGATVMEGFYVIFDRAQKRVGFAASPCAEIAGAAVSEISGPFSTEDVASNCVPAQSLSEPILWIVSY

As to `CC1(C)C(=N)N[C@](C)(c2nc(NC(=O)c3ccc(Cl)cn3)ccc2F)CS1(=O)=O` [Example 9cc], the values for the Ki in experiment [1] (setting [3]) and in experiment [2] were 13.7 nM and at most 10 nM, respectively.
In the case of `COc1ccc(C(=O)Nc2cc(F)c(F)c([C@]3(C)CS(=O)(=O)C(C)(C)C(=N)N3)c2F)nc1` [Example 9ac], the inhibitory constant (Ki) (in general, the equilibrium dissociation constant of an inhibitor or competing ligand from its target) is 18.9 nM in experiment [1] (setting [3]) and 13 nM in experiment [2].
For the molecule `COc1cnc(C(=O)Nc2ccc(F)c([C@]3(C)CS(=O)(=O)[C@](C)(c4cccc(F)c4)C(=N)N3)c2)cn1` [Example 9dd-b], the Ki in experiment [1] (setting [3]) was 228 nM; in experiment [2], 101 to 700 nM.
Regarding `CC1(C)C(=N)N[C@](C)(c2cc(NC(=O)c3ccc(C(F)(F)F)cn3)cc(F)c2F)CS1(=O)=O` [Example 9bf], the Ki was 25 nM in experiment [1] (setting [3]) and 11 nM in experiment [2].
On to `C[C@@]1(c2cc(NC(=O)c3ccc(F)cn3)ccc2F)CS(=O)(=O)[C@](C)(CC(F)(F)F)C(=N)N1` [Example 9dp-b], for which the figures for the Ki in experiment [1] (setting [3]) and in experiment [2] were 74.5 nM and 11 to 100 nM, respectively.
Take `C[C@]1(CC(F)(F)F)C(=N)N[C@](C)(c2sc(-c3cccc(-c4nnco4)c3)cc2F)CS1(=O)=O` [Example 27bk-a]: the Ki in experiment [1] (read-out: BACE1 Ki) was 4.7 nM; in experiment [2], 9 nM.
Turning to `CC1(C)C(=N)N[C@](C)(c2cc(NC(=O)C3CCC3(F)F)ccc2F)CS1(=O)=O` (stereo partly shown) [Example 9aw], the Ki in experiment [1] (setting [3]) is 299 nM; in experiment [2], 47 nM.
Turning to `CC1(C)C(=N)N[C@](C)(c2cc(NC(=O)c3ncc(F)cc3F)cc(F)c2F)CS1(=O)=O` [Example 9ba], the figures for the Ki in experiment [1] (setting [3]) and in experiment [2] were 21 nM and 1 nM, respectively.
As for `CC1(C)C(=N)N[C@](C)(c2sc(-c3cc(Cl)cc(C#N)c3)cc2Cl)CS1(=O)=O` [Example 27s], the results for the Ki in experiment [1] (read-out: BACE1 Ki) and in experiment [2] were 64.9 nM and at most 10 nM, respectively.
With `C[C@@]1(c2cccc(OCc3ccccc3)c2)C(=N)N[C@](C)(c2cc(F)ccc2F)CS1(=O)=O` [Example 34d-b], the inhibition (usually the share of the control response that was lost under treatment) at 10 µM worked out at 16% in experiment [1] and 10% in experiment [2].
For `COc1ccc(-c2nnc(-c3cc(F)c([C@]4(C)CS(=O)(=O)C(C)(C)C(=N)N4)s3)o2)cc1` [Example 27bh], the Ki is 74 nM in experiment [1] (read-out: BACE1 Ki) and at most 20 nM in experiment [2].
`CC1(C)C(=N)N[C@](C)(c2cc(NC(=O)c3ccc(C#N)cn3)cc(F)c2F)CS1(=O)=O` [Example 9bg]: the Ki in experiment [1] (setting [3]) is 6 nM; in experiment [2] it was 3 nM.
Regarding `CC1(C)C(=N)N[C@](C)(c2sc(-c3cncnc3)cc2Cl)CS1(=O)=O` [Example 24], the Ki in experiment [1] (setting [3]) is 387 nM; in experiment [2], 314 nM.
For `COc1cnc(C(=O)Nc2cc([C@]3(C)CS(=O)(=O)C(C)(C)C(=N)N3)c(F)cc2Br)cn1` [Example 9by], in that order: 718 nM and 2900 nM.
Consider `C[C@@]1(c2cccc(F)c2)C(=N)N[C@](C)(c2cc(NC(=O)c3ccc(C(F)(F)F)cn3)ccc2F)CS1(=O)=O` [Example 9de-b], for which the Ki in experiment [1] (setting [3]) was 175 nM; in experiment [2], 101 to 700 nM.
`C[C@@]1(c2cccc(C(F)(F)F)c2)C(=N)N[C@](C)(c2cc(N)ccc2F)CS1(=O)=O` [Entry 69]: the inhibition at 10 µM is 17% in experiment [1] and 29 to 47% in experiment [2].
Consider `C[C@@]1(C2CCC2)C(=N)N[C@](C)(c2cc(NC(=O)c3ccc(C(F)(F)F)cn3)ccc2F)CS1(=O)=O` [Example 9dz-b], for which the Ki in experiment [1] (setting [3]) was 123 nM; in experiment [2] it was 101 to 700 nM.
On to `COc1cnc(C(=O)Nc2cc(F)c(F)c([C@]3(C)CS(=O)(=O)C(C)(C)C(=N)N3)c2F)cn1` [Example 9ae], for which the results for the Ki in experiment [1] (setting [3]) and in experiment [2] were 45.4 nM and 69 nM, respectively.
Consider `CC1(C)C(N)=N[C@](C)(c2cc(Br)ccc2F)CS1(=O)=O` [Example 3-3], for which the inhibition at 10 µM in experiment [1] is 56%. In addition, in experiment [2], the inhibition constant (Ki) was 500 to 10000 nM.
In the case of `CC1(C)C(=N)N[C@](C)(c2sc(-c3cncc(C#N)c3)cc2Cl)CS1(=O)=O` [Example 23], the Ki in experiment [1] (setting [3]) was 63 nM; in experiment [2], under 200 nM.
For `COc1ccc(C(=O)Nc2ccc(F)c([C@]3(C)CS(=O)(=O)C(C)(C)C(=N)N3)n2)nn1` [Example 9ci], the Ki in experiment [1] (setting [3]) is 219 nM; in experiment [2] it was 44 nM.
For `CC(F)(F)C(=O)Nc1cc(F)c(F)c([C@]2(C)CS(=O)(=O)C(C)(C)C(=N)N2)c1` [Example 9bl], in that order: 79 nM and 40 nM.
In the case of `C[C@]1(CC(F)(F)F)C(=N)N[C@](C)(c2sc(-c3cccc(C#N)c3)cc2F)CS1(=O)=O` [Example 27bj-a], the Ki in experiment [1] (read-out: BACE1 Ki) is 35.7 nM; in experiment [2], 7 nM.
Regarding `CC1(C)C(=N)N[C@](C)(c2sc(-c3nnc(-c4ccc(F)cc4)o3)cc2Cl)CS1(=O)=O` [Example 27bb], the Ki in experiment [1] (setting [3]) was 102 nM; in experiment [2] it was at most 20 nM.
`COc1cccc2cc(-c3cc(Cl)c([C@]4(C)CS(=O)(=O)[C@@](C)(CC5CCOCC5)C(=N)N4)s3)[nH]c12` [Example 27bx]: the Ki was 18 nM in experiment [1] (read-out: BACE1 Ki) and at most 10 nM in experiment [2].
Consider `COc1cnc(C(=O)Nc2ccc(F)c([C@]3(C)CS(=O)(=O)[C@](C)(c4ccc(F)cc4)C(=N)N3)c2)cn1` [Example 9dg-b], for which the Ki in experiment [1] (setting [3]) was 186 nM; in experiment [2] it was 101 to 700 nM.
In the case of `C[C@@]1(c2ccccn2)C(=N)N[C@](C)(c2cc(N)ccc2F)CS1(=O)=O` [Entry 77], the results for the inhibition at 10 µM in experiment [1] and in experiment [2] were 25% and 29 to 47%, respectively.
As for `CC1(C)C(=N)N[C@](C)(c2sc(-c3cncc(Cl)c3)cc2Cl)CS1(=O)=O` [Example 27l], the Ki is 92.2 nM in experiment [1] (read-out: BACE1 Ki) and at most 10 nM in experiment [2].
On to `CC(F)(F)C(=O)Nc1ccc(F)c([C@]2(C)CS(=O)(=O)C(C)(C)C(=N)N2)c1` [Example 9ai], for which the Ki in experiment [1] (setting [3]) is 82 nM; in experiment [2] it was 18 nM.
As for `COc1cnc(C(=O)Nc2ccc(F)c([C@]3(C)CS(=O)(=O)[C@](C)(CC4CC4)C(=N)N3)c2)cn1` [Example 9dk-b], the inhibition constant Ki in experiment [1] (setting [3]) is 42.6 nM; in experiment [2], 11 to 100 nM.
Regarding `C[C@@]1(c2sc(-c3cccc(C#N)c3)cc2F)CS(=O)(=O)[C@@](C)(c2cccc(F)c2)C(=N)N1` [Example 27br-a], the Ki was 58.5 nM in experiment [1] (read-out: BACE1 Ki) and 10 nM in experiment [2].
For `C[C@@]1(C2CCC2)C(=N)N[C@](C)(c2cc(N)ccc2F)CS1(=O)=O` [Entry 40], the inhibition at 10 µM in experiment [1] is 20%; in experiment [2], 29 to 47%.
For `C[C@@]1(C2CCC2)C(=N)N[C@](C)(c2cc(NC(=O)c3ccc(Cl)cn3)ccc2F)CS1(=O)=O` [Example 9dw-b], the Ki in experiment [1] (setting [3]) is 66.3 nM; in experiment [2] it was 11 to 100 nM.
On to `CC1(CC(F)(F)F)C(=N)N[C@](C)(c2sc(-c3ccc(F)c(C#N)c3)cc2F)CS1(=O)=O` (stereo partly shown) [Example 27bm-a], for which the results for the Ki in experiment [1] (read-out: BACE1 Ki) and in experiment [2] were 35 nM and 7 nM, respectively.
With `COc1cnc(C(=O)Nc2ccc(F)c([C@]3(C)CS(=O)(=O)[C@](C)(C4CC4)C(=N)N3)c2)cn1` [Example 9cq-b], the results for the inhibition constant Ki in experiment [1] (setting [3]) and in experiment [2] were 96.7 nM and 11 to 100 nM, respectively.
As to `CC1(C)C(=N)N[C@](C)(c2sc(C(=O)NCc3cc(Cl)ccn3)cc2Cl)CS1(=O)=O` [Example 22u], the inhibition constant Ki in experiment [1] (setting [3]) is 2720 nM; in experiment [2], 77 nM.
Turning to `CC1(C)C(=N)N[C@](C)(c2sc(Br)cc2Cl)CS1(=O)=O` [Example 4-1], the Ki was 1500 nM in experiment [1] (read-out: BACE1 inhibition, Ki) and 500 to 10000 nM in experiment [2].
As to `COc1cccc([C@]2(C)C(=N)N[C@](C)(c3cc(F)ccc3F)CS2(=O)=O)c1` [Example 32e-b], the inhibition at 10 µM is 22% in experiment [1] and 1 to 24% in experiment [2].
